# Data as given in patent publication US9181218B2, “Compounds for improved stem cell differentiation into hepatocytes” (Hoffmann-La Roche Inc., priority 2013, dated 2015).
# System: interferon-stimulated genes (ISGs)
# Test: Microarray analysis of iCell Hepatocytes treated with the compound of example 1
# Assay type: cell-based, Human
# Source text: iCell Hepatocytes treated with the compound of example 1 results in the up and down-regulation of a host of genes; including a kinetic effect on interferon-stimulated gene (ISGs) expression. See FIGS. 15-I and 15-II, 16-I and 16-II and 18 and Table 1.
structure (smiles),measurement,setting,value
"O=C(NCc1cccc(F)c1)c1cccc2nc(-c3c(NC[C@@H](O)c4ccccc4)cc[nH]c3=O)[nH]c12 [Example 1, 2-[4-((S)-2-hydroxy-2-phenyl-ethylamino)-2-oxo-1,2-dihydro-pyridin-3-yl]-3H-benzoimidazole-4-carboxylic acid 3-fluoro-benzylamide]",JAK2 Raw Est Fold Change,DAY 7,1.39
same,JUNB Raw Est Fold Change,DAY 7,−8.16
same,KIAA0040 Raw Est Fold Change,DAY 7,−1.76
same,KIF5C Raw Est Fold Change,DAY 7,−4.32
same,KPNB1 Raw Est Fold Change,DAY 7,−1.34
same,LRP4 Raw Est Fold Change,DAY 7,−2.80
same,LTBP2 Raw Est Fold Change,DAY 7,−2.94
same,LYN Raw Est Fold Change,DAY 7,−1.71
same,MAFB Raw Est Fold Change,DAY 7,6.31
same,MAFK Raw Est Fold Change,DAY 7,−1.70
same,MAP3K8 Raw Est Fold Change,DAY 7,−6.22
same,MAX Raw Est Fold Change,DAY 7,−1.95
same,MCL1 Raw Est Fold Change,DAY 7,−1.33
same,MSR1 Raw Est Fold Change,DAY 7,16.00
same,MT1F Raw Est Fold Change,DAY 7,2.56
same,MTHFD2L Raw Est Fold Change,DAY 7,−5.12
same,MTMR1 Raw Est Fold Change,DAY 7,−1.20
same,MYC Raw Est Fold Change,DAY 7,−7.27
same,MYD88 Raw Est Fold Change,DAY 7,1.19
same,MYOM2 Raw Est Fold Change,DAY 7,1.59
same,MYT1 Raw Est Fold Change,DAY 7,−3.88
same,NEXN Raw Est Fold Change,DAY 7,−2.35
same,NFE2 Raw Est Fold Change,DAY 7,−5.79
same,NFIL3 Raw Est Fold Change,DAY 7,−1.60
same,NGFB Raw Est Fold Change,DAY 7,1.97
same,NLRC5 Raw Est Fold Change,DAY 7,−3.27
same,NMI Raw Est Fold Change,DAY 7,1.34
same,NPAS2 Raw Est Fold Change,DAY 7,−4.43
same,OPTN Raw Est Fold Change,DAY 7,1.28
same,PADI2 Raw Est Fold Change,DAY 7,4.13
same,PARP14 Raw Est Fold Change,DAY 7,1.33
same,PCK2 Raw Est Fold Change,DAY 7,8.00
same,PCMT1 Raw Est Fold Change,DAY 7,−1.45
same,PCTK3 Raw Est Fold Change,DAY 7,2.27
same,PDGFRL Raw Est Fold Change,DAY 7,−3.16
same,PEX26 Raw Est Fold Change,DAY 7,1.38
same,PHF11 Raw Est Fold Change,DAY 7,−2.75
same,PHF15 Raw Est Fold Change,DAY 7,−1.69
same,PHLDA1 Raw Est Fold Change,DAY 7,−9.08
same,PI4K2B Raw Est Fold Change,DAY 7,1.41
same,PIM3 Raw Est Fold Change,DAY 7,−2.64
same,PLAC8 Raw Est Fold Change,DAY 7,5.43
same,PLAUR Raw Est Fold Change,DAY 7,−2.56
same,PLSCR1 Raw Est Fold Change,DAY 7,−2.59
same,PML Raw Est Fold Change,DAY 7,−2.58
same,PON1 Raw Est Fold Change,DAY 7,5.18
same,PON2 Raw Est Fold Change,DAY 7,−1.39
same,PPIC Raw Est Fold Change,DAY 7,−2.26
same,PSMB10 Raw Est Fold Change,DAY 7,1.91
same,PTEN Raw Est Fold Change,DAY 7,−1.44
same,PUS1 Raw Est Fold Change,DAY 7,−1.41
same,PXK Raw Est Fold Change,DAY 7,−1.23
same,RAB27A Raw Est Fold Change,DAY 7,−5.10
same,RAN Raw Est Fold Change,DAY 7,−1.29
same,RBMS1 Raw Est Fold Change,DAY 7,−3.48
same,RECQL Raw Est Fold Change,DAY 7,−1.66
same,RIPK2 Raw Est Fold Change,DAY 7,−1.45
same,RPL22 Raw Est Fold Change,DAY 7,3.02
same,RSAD2 Raw Est Fold Change,DAY 7,5.52
same,RXRA Raw Est Fold Change,DAY 7,1.28
same,SAA1 Raw Est Fold Change,DAY 7,−1.51
same,SAMD9L Raw Est Fold Change,DAY 7,2.42
same,SCARB2 Raw Est Fold Change,DAY 7,1.64
same,SDC2 Raw Est Fold Change,DAY 7,1.66
same,SELL Raw Est Fold Change,DAY 7,3.83
same,SELP Raw Est Fold Change,DAY 7,5.95
same,SERPINB9 Raw Est Fold Change,DAY 7,−1.86
same,SF3A1 Raw Est Fold Change,DAY 7,1.26
same,SFPQ Raw Est Fold Change,DAY 7,−1.57
same,SHMT2 Raw Est Fold Change,DAY 7,1.44
same,SLC7A5 Raw Est Fold Change,DAY 7,1.78
same,SLC10A1 Raw Est Fold Change,DAY 7,10.61
same,SLC15A2 Raw Est Fold Change,DAY 7,−1.52
same,SLC20A1 Raw Est Fold Change,DAY 7,1.90
same,SLC25A28 Raw Est Fold Change,DAY 7,−1.47
same,SLC30A1 Raw Est Fold Change,DAY 7,2.66
same,SLFN12 Raw Est Fold Change,DAY 7,−1.92
same,SOAT2 Raw Est Fold Change,DAY 7,11.97
same,SOCS1 Raw Est Fold Change,DAY 7,−42.96
same,SOCS3 Raw Est Fold Change,DAY 7,−17.74
same,SPSB1 Raw Est Fold Change,DAY 7,−2.63
same,SPTLC2 Raw Est Fold Change,DAY 7,−1.49
same,SRGAP2 Raw Est Fold Change,DAY 7,1.95
same,SSBP3 Raw Est Fold Change,DAY 7,1.49
same,SSR1 Raw Est Fold Change,DAY 7,−1.71
same,STAT1 Raw Est Fold Change,DAY 7,−4.03
same,STEAP4 Raw Est Fold Change,DAY 7,−1275.83
same,STK39 Raw Est Fold Change,DAY 7,−1.88
same,TAP1 Raw Est Fold Change,DAY 7,−1.72
same,TAP2 Raw Est Fold Change,DAY 7,−2.02
same,TARBP1 Raw Est Fold Change,DAY 7,−1.18
same,TCF7L2 Raw Est Fold Change,DAY 7,−1.57
same,TEAD4 Raw Est Fold Change,DAY 7,−6.47
same,TFDP2 Raw Est Fold Change,DAY 7,1.26
same,TFEC Raw Est Fold Change,DAY 7,7.83
same,TFPI Raw Est Fold Change,DAY 7,−1.80
same,THBD Raw Est Fold Change,DAY 7,−6.70
same,TIMP1 Raw Est Fold Change,DAY 7,−11.92
same,TMEM2 Raw Est Fold Change,DAY 7,−3.07
same,TMEM49 Raw Est Fold Change,DAY 7,−1.98
same,TNFSF14 Raw Est Fold Change,DAY 7,−2.68
same,TOR1B Raw Est Fold Change,DAY 7,−1.39
same,TPM1 Raw Est Fold Change,DAY 7,1.77
same,TRIB3 Raw Est Fold Change,DAY 7,1.84
same,TRIM14 Raw Est Fold Change,DAY 7,1.68
same,TXNIP Raw Est Fold Change,DAY 7,−7.72
same,UBE1L Raw Est Fold Change,DAY 7,1.65
same,UBE2S Raw Est Fold Change,DAY 7,−1.95
same,ULK4 Raw Est Fold Change,DAY 7,−4.12
same,UPP2 Raw Est Fold Change,DAY 7,16.78
same,USP25 Raw Est Fold Change,DAY 7,1.84
same,WARS Raw Est Fold Change,DAY 7,−1.50
same,WAS Raw Est Fold Change,DAY 7,3.44
same,XRCC6BP1 Raw Est Fold Change,DAY 7,1.33
same,ZC3HAV1 Raw Est Fold Change,DAY 7,−1.57
same,ZNF24 Raw Est Fold Change,DAY 7,−1.16
same,ZNF276 Raw Est Fold Change,DAY 7,1.44
same,ZNF313 Raw Est Fold Change,DAY 7,1.31
same,interferon-stimulated genes (ISGs) expression,"microarray heat map, FIG. 15",down-regulated interferon-stimulated genes (ISGs) as early as 2 hr
same,CREB3L1 expression,"microarray, FIG. 15",down-regulated as early as 2 hr post treatment
same,SLC10A1 expression,"microarray, FIG. 15",up-regulated at 7 day post-treatment
